How the values were obtained:
[1] = target: recombinant human estradiol receptors (rhER) beta 1 (β1) (Homo sapiens, UniProt Q92731); experiment: in vitro competitive binding assay, displacement of radiolabeled 17b-estradiol, rhER beta 1; details: result in words; highest concentration 2.5×E-4 M
[2] = target: T1, recombinant human estradiol receptors (rhER) alpha (α) (Homo sapiens, UniProt P03372); experiment: in vitro competitive binding assay, displacement of radiolabeled 17b-estradiol, rhER alpha; details: result in words; highest concentration 2.5×E-4 M
T1 sequence (P03372 1-595): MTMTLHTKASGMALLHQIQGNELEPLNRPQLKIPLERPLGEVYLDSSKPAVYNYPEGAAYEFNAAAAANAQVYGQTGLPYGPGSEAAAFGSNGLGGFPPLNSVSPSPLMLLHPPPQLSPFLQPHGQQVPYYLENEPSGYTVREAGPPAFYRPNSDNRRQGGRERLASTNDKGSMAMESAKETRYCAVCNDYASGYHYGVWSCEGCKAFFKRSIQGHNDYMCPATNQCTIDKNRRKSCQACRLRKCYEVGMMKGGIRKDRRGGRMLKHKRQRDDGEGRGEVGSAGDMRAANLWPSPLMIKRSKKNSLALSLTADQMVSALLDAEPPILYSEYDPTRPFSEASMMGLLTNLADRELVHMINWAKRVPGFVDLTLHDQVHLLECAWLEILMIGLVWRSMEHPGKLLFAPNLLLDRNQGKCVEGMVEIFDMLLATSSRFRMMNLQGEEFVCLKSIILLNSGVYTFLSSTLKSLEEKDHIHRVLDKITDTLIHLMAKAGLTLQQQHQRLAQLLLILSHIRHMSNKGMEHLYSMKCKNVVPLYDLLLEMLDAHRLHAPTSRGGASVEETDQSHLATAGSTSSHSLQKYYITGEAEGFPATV

Sequence of recombinant human estradiol receptors (rhER) beta 1 (β1) (Q92731 whole entry): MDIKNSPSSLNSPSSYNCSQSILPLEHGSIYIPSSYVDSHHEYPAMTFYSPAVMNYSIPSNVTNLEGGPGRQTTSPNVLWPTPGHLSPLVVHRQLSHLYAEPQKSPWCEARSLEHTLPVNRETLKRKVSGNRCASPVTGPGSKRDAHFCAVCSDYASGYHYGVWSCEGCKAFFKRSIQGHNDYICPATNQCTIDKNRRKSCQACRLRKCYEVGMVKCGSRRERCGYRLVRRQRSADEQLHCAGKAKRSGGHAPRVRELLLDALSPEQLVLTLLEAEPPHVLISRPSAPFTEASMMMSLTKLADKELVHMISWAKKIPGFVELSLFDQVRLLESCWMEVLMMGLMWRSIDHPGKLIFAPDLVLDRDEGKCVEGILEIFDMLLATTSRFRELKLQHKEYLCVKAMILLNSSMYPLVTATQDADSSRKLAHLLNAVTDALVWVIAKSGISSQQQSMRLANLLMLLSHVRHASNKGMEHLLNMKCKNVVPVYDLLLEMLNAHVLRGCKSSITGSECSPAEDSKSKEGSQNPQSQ

estradiol binding activity, beta receptor binding [1]: no estradiol binding activity
estradiol binding activity, alpha receptor binding [2]: no estradiol binding activity
SMILES: COc1cc(C(C)(C)c2ccc(O)c(OC)c2)ccc1O [compound 1, 4,4′ (2,2′-isoPropylidene)-Bis(ortho Methoxy)Phenol (PBMP)]
